The values below are quoted from earlier work in patent US20200179295A1, “MRI-DETECTABLE MULTILAYER MICROCAPSULES FOR ULTRASOUND-TRIGGERED DELIVERY OF PHARMACOLOGICALLY ACTIVE AGENTS” (THE UAB RESEARCH FOUNDATION, priority 2018, published 2020).

For this series the following is noted: 1.5 T; Rohrer et al. 2005.

Take `CC(O)CN1CCN(CC(=O)[O-])CCN(CC(=O)[O-])CCN(CC(=O)[O-])CC1.[Gd+3]` (stereo not shown) [ProHance, gadoteridol]: the r1 is 4.1 mM⁻¹ s⁻¹.
